Test results from ChEMBL document CHEMBL6177929, “Synthesis and screening of novel 2,4-bis substituted quinazolines as tubulin polymerization promoters and antiproliferative agents” (RSC Med Chem, 2025).
Activity calls are given as the source filed them. The rule behind the calls is not given here.

Legend:
[1] = test system: SH-SY5Y; experiment: Antiproliferative activity against human SH-SY5Y cells assessed as reduction in cell viability incubated for 48 hrs by MTT assay; type: functional, cell-based
[2] = test system: MCF7; experiment: Antiproliferative activity against human MCF7 cells assessed as reduction in cell viability incubated for 48 hrs by MTT assay; type: functional, cell-based; details: MCF7, 48 h
[3] = test system: HCT-116; experiment: Antiproliferative activity against human HCT-116 cells assessed as reduction in cell viability incubated for 48 hrs by MTT assay; type: functional, cell-based; details: HCT-116, 48 h
[4] = test system: SH-SY5Y; experiment: Induction of cell cycle arrest in human SH-SY5Y cells assessed as accumulation of cells at S phase at 5 uM incubated for 48 hrs by LSRFortessa cell analyzer (reference value: 16.2%); type: functional
[5] = test system: SH-SY5Y; experiment: Induction of cell cycle arrest in human SH-SY5Y cells assessed as accumulation of cells at G1/G0 phase at 5 uM incubated for 48 hrs by LSRFortessa cell analyzer (reference value: 50.1%); type: functional
[6] = test system: SH-SY5Y; experiment: Induction of apoptosis in human SH-SY5Y cells assessed as necrotic cells at 5 uM incubated for 48 hrs by Annexin V-FITC/PI staining based flow cytometry analysis (reference value: 0.7%); type: functional
[7] = test system: SH-SY5Y; experiment: Induction of apoptosis in human SH-SY5Y cells assessed as viable cells at 5 uM incubated for 48 hrs by Annexin V-FITC/PI staining based flow cytometry analysis (reference value: 91.3%); type: functional; details: read-out: Activity
[8] = test system: SH-SY5Y; experiment: Induction of apoptosis in human SH-SY5Y cells assessed as early apoptotic cells at 5 uM incubated for 48 hrs by Annexin V-FITC/PI staining based flow cytometry analysis (reference value: 2.0%); type: functional
[9] = test system: SH-SY5Y; experiment: Induction of cell cycle arrest in human SH-SY5Y cells assessed as accumulation of cells at G2/M phase at 5 uM incubated for 48 hrs by LSRFortessa cell analyzer (reference value: 28.4%); type: functional
[10] = test system: SH-SY5Y; experiment: Induction of apoptosis in human SH-SY5Y cells assessed as late apoptotic cells at 5 uM incubated for 48 hrs by Annexin V-FITC/PI staining based flow cytometry analysis (reference value: 3.0%); type: functional
[11] = test system: SH-SY5Y; experiment: Induction of mitochondrial membrane potential in human SH-SY5Y cells assessed as mitochondria depolarization at 5 uM incubated for 48 hrs by synergy H1 microplate reader analysis; type: functional, cell-based
[12] = test system: HEK-293T; experiment: Cytotoxicity against human HEK293T cells at 25 uM incubated for 48 hrs by MTT assay; type: toxicity, cell-based
[13] = biological target: T1, Tubulin (Homo sapiens) (UniProt P68371+Q9H4B7+P0DPH7+P68366+Q13509+Q71U36+P04350+Q3ZCM7+P07437+P68363+Q9BQE3+Q6PEY2+Q13885+Q9BVA1+Q9BUF5); experiment: Inhibition of tubulin polymerization (unknown origin) at 1 uM incubated for 60 mins measured every 1 mins by spectrophotometric analysis; type: protein-complex assay
[14] = biological target: T1, Tubulin (Homo sapiens); experiment: Inhibition of tubulin polymerization (unknown origin) at 5 uM incubated for 60 mins measured every 1 mins by spectrophotometric analysis; type: protein-complex assay

**Q.** How did the IC50 [1] turn out when `c1ccc(CN2CCN(c3nc(N4CCN(Cc5ccccc5)CC4)c4ccccc4n3)CC2)cc1` was run?
**A.** > 25 µM

**Q.** And the IC50 [2]?
**A.** 21.8 µM

**Q.** And the IC50 [3]?
**A.** > 25 µM

**Q.** Which results are given for `COc1cc2c(c(OC)c1OC)-c1ccc(OC)c(=O)cc1[C@@H](NC(C)=O)CC2` [COLCHICINE]?
**A.** Activity [4]: 4.1%; IC50 [1]: 6.82 µM; Activity [5]: 5.1%; IC50 [2]: 4.48 µM; Activity [6]: 3.9%; viability at 5 µM [7]: 35.1%; Activity [8]: 6.5%; Activity [9]: 90%; IC50 [3]: 1.65 µM; Activity [10]: 54.5%

**Q.** With `COc1cc2c(-n3cnnc3)nc(-n3cnnc3)nc2c(OC)c1OC` as the compound, how does the IC50 [1] read?
**A.** > 25 µM

**Q.** And the IC50 [2]?
**A.** 23.1 µM

**Q.** What about the IC50 [3] of the same compound?
**A.** 13.8 µM

**Q.** How did the Activity [4] turn out when `COc1cc2c(-n3nnc4ccccc43)nc(-n3nnc4ccccc43)nc2c(OC)c1OC` was run?
**A.** 7.7%

**Q.** And the IC50 [1]?
**A.** 8.14 µM

**Q.** And the Activity [5]?
**A.** 78.9%

**Q.** And the IC50 [2]?
**A.** 3.45 µM

**Q.** And the Activity [11]?
**A.** inactive

**Q.** And the Activity [6]?
**A.** 2%

**Q.** And the Activity [12]?
**A.** Non-toxic

**Q.** And the viability at 5 µM [7]?
**A.** 35.9%

**Q.** And the Activity [8]?
**A.** 10.3%

**Q.** What about the Activity [9] of the same compound?
**A.** 8.4%

**Q.** And the IC50 [3]?
**A.** 7.25 µM

**Q.** And the Activity [10]?
**A.** 51.8%

**Q.** With `c1ccc2c(-n3cnnc3)nc(-n3cnnc3)nc2c1` as the compound, how does the IC50 [1] read?
**A.** 15.3 µM

**Q.** And the IC50 [2]?
**A.** 19 µM

**Q.** What about the IC50 [3] of the same compound?
**A.** 17.5 µM

**Q.** `c1ccc(N2CCN(c3nc(N4CCN(c5ccccc5)CC4)c4ccccc4n3)CC2)cc1` was tested. Which IC50 [1] did it give?
**A.** > 25 µM

**Q.** And the IC50 [2]?
**A.** 12.8 µM

**Q.** And the IC50 [3]?
**A.** 9.19 µM

**Q.** `c1ccc2c(-n3ccnc3)nc(-n3ccnc3)nc2c1` was tested. Which IC50 [1] did it give?
**A.** 15.7 µM

**Q.** What about the IC50 [2] of the same compound?
**A.** 11.5 µM

**Q.** And the IC50 [3]?
**A.** 9.43 µM

**Q.** Which Activity [4] does the source give for `COc1cc2c(-n3ccnc3)nc(-n3ccnc3)nc2c(OC)c1OC` here?
**A.** 6.8%

**Q.** And the inhibition [13]?
**A.** inactive

**Q.** And the IC50 [1]?
**A.** 9.91 µM

**Q.** What about the Activity [5] of the same compound?
**A.** 11.3%

**Q.** What about the IC50 [2] of the same compound?
**A.** 4.25 µM

**Q.** What about the inhibition [14] of the same compound?
**A.** Active

**Q.** What about the Activity [11] of the same compound?
**A.** Active

**Q.** And the Activity [6]?
**A.** 6.8%

**Q.** And the Activity [12]?
**A.** Non-toxic

**Q.** What about the viability at 5 µM [7] of the same compound?
**A.** 33.3%

**Q.** What about the Activity [8] of the same compound?
**A.** 9.6%

**Q.** What about the Activity [9] of the same compound?
**A.** 79%

**Q.** What about the IC50 [3] of the same compound?
**A.** 2.65 µM

**Q.** And the Activity [10]?
**A.** 50.3%

**Q.** Which IC50 [1] does the source give for `COc1cc2c(N3CCN(C)CC3)nc(N3CCN(C)CC3)nc2c(OC)c1OC` here?
**A.** > 25 µM

**Q.** What about the IC50 [2] of the same compound?
**A.** 24.1 µM

**Q.** What about the IC50 [3] of the same compound?
**A.** 21.3 µM

**Q.** Which IC50 [1] does the source give for `CN1CCN(c2nc(N3CCN(C)CC3)c3ccccc3n2)CC1` here?
**A.** 23.8 µM

**Q.** What about the IC50 [2] of the same compound?
**A.** > 25 µM

**Q.** What about the IC50 [3] of the same compound?
**A.** 20.7 µM

**Q.** `COc1cc2c(N3CCOCC3)nc(N3CCOCC3)nc2c(OC)c1OC` was tested. Which IC50 [1] did it give?
**A.** 15.9 µM

**Q.** What about the IC50 [2] of the same compound?
**A.** 18.8 µM

**Q.** What about the IC50 [3] of the same compound?
**A.** > 25 µM

**Q.** For `c1ccc2c(-n3nnc4ccccc43)nc(-n3nnc4ccccc43)nc2c1`, which IC50 [1] is on record?
**A.** 11 µM

**Q.** And the IC50 [2]?
**A.** 15.3 µM

**Q.** What about the IC50 [3] of the same compound?
**A.** > 25 µM

**Q.** Which IC50 [1] does the source give for `c1ccc2c(N3CCOCC3)nc(N3CCOCC3)nc2c1` here?
**A.** 18.9 µM

**Q.** And the IC50 [2]?
**A.** 14.6 µM

**Q.** What about the IC50 [3] of the same compound?
**A.** > 25 µM
